Experimental data as given in paper PMC9635472, “Design, synthesis, and biological evaluation of novel ciprofloxacin derivatives as potential anticancer agents targeting topoisomerase II enzyme” (Journal of Enzyme Inhibition and Medicinal Chemistry, 2022).

Biological target: T1, human DNA Topo II (Homo sapiens, UniProt P11388)
T1 construct: purchased USB Corp., USA
Assay: In vitro DNA Topo II-mediated relaxation assay (supercoiled pBR322)
Format: biochemical
Conditions: for IC50: means of three experiments, read-out: Topo II IC50 (µM*±SD); for inhibition at 0.1 µM / inhibition at 1 µM / inhibition at 10 µM / inhibition at 100 µM: recombinant Topo II relaxation; for inhibition at 0.1 µM: compound at 0.1 μM, read-out: Percentage of inhibition of Topo II, 0.1 μM; for inhibition at 1 µM: compound at 1 μM, read-out: Percentage of inhibition of Topo II, 1 μM; for inhibition at 10 µM: compound at 10 μM, read-out: Percentage of inhibition of Topo II, 10 μM; for inhibition at 100 µM: compound at 100 μM, read-out: Percentage of inhibition of Topo II, 100 μM
Experimental: DNA Topo II inhibitory activities of the targeted compounds were measured as follows. A mixture of 100 ng of supercoiled pBR322 plasmid DNA (Fermentas, USA) and 2 units of human DNA Topo II (USB Corp., USA) was incubated with and without the prepared compounds in the assay buffer (10 µM Tris-HCl pH 7.9) containing 50 µM NaCl, 4 µM MgCl2, 1 µM EDTA, 1 µM ATP, and 15 mg/ml bovine serum albumin for 30 min at 37 °C. The reaction in a final volume of 10 µl was terminated by the addition of 4 µl of 6 µM EDTA. DNA samples were then electrophoresed on 1% agarose gel containing 0.5 µg/ml ethidium bromide in gel and buffer at high voltage (100–250 v) until the dye front has migrated about 4–6 cm down the gel. with a running buffer of TAE Tris-acetate– EDTA (TAE). Gels were stained for 15 min in water. DNA bands were visualised by transillumination with UV light and quantitated using AlphaI-maker TM (Alpha Innotech Corporation).
Well-known Topo II inhibitor doxorubicin was used as a positive control. The reaction products of Topo II relaxation assays were analysed by electrophoretic mobility and developed in ethidium bromide in the presence of UV light. The inhibitory activities were evaluated at 4 concentrations of 100, 10, 1, and 0.1 μM for all compounds as shown in (Figure 6). Topo II inhibitory activities of the tested compounds are summarised in (Table 2).

T1 sequence (P11388 whole entry): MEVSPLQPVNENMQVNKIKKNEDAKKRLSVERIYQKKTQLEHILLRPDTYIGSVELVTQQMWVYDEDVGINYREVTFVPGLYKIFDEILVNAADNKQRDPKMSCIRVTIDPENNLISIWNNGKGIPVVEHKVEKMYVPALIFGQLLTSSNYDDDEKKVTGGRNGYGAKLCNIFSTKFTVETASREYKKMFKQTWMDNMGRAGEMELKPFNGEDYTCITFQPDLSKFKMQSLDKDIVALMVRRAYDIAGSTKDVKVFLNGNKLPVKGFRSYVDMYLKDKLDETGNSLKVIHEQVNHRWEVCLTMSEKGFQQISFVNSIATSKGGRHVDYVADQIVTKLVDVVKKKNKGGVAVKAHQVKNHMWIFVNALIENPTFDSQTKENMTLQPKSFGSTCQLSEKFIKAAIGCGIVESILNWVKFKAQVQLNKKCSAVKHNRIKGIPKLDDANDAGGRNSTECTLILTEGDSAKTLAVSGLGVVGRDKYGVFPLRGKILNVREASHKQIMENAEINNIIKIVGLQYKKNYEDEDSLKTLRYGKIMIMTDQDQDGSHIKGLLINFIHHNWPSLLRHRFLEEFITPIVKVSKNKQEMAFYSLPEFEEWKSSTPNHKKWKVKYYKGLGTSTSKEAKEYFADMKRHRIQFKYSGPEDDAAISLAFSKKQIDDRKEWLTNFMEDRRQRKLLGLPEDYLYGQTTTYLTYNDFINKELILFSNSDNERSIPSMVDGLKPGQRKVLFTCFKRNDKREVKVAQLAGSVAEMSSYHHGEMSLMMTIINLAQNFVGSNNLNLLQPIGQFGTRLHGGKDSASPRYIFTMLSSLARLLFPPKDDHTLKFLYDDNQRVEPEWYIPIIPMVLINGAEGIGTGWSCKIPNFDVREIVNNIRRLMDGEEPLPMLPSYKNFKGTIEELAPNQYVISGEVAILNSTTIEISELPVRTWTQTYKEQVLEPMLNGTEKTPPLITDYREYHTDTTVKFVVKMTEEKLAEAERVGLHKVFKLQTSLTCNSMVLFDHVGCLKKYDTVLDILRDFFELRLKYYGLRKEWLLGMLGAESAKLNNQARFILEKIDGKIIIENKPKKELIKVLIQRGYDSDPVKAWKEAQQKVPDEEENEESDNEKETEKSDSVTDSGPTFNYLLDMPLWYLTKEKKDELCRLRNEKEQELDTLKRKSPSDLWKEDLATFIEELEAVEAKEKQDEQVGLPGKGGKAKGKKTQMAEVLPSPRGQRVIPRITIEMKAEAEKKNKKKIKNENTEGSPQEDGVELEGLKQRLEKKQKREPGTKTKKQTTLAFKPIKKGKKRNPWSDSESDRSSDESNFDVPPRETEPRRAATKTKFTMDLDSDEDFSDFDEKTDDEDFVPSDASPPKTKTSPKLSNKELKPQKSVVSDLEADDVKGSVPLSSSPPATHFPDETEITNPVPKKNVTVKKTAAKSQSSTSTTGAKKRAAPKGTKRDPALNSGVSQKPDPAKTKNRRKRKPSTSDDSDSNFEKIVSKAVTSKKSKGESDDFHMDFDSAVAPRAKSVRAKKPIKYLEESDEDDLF

Compound | IC50 [µM] | inhibition at 0.1 µM [%] | inhibition at 1 µM [%] | inhibition at 10 µM [%] | inhibition at 100 µM [%]
O=C1CC(=O)N(C(=O)CN2CCN(c3cc4c(cc3F)c(=O)c(C(=O)O)cn4C3CC3)CC2)N1 [Compound 6, 1-cyclopropyl-7-(4-(2-(3,5-dioxopyrazolidin-1-yl)-2-oxoethyl)piperazin-1-yl)-6-fluoro-4-oxo-1,4-dihydroquinoline-3-carboxylic acid] | 0.92 ± 0.05 | 28 | 51.9 | 76.3 | 87.4
O=C(CN1CCN(c2cc3c(cc2F)c(=O)c(C(=O)O)cn3C2CC2)CC1)NN=C1C(=O)Nc2ccccc21 [Compound 8a, 1-Cyclopropyl-6-fluoro-4-oxo-7-(4-(2-oxo-2-(2-(2-oxoindolin-3-ylidene)hydrazinyl)ethyl)piperazin-1-yl)-1,4-dihydroquinoline-3-carboxylic acid] | 0.74 ± 0.04 | 32.5 | 50.3 | 77.4 | 91.6
